Where a name gives a salt, the structure may show the parent alone.
What was measured:
[1] = biological target: human recombinant DAO (Homo sapiens (Human), UniProt P19801); test: Determination of selective inhibitory for DAO (diamine oxidase); type: biochemical; settings: human recombinant DAO, 1,4-diaminobutane substrate
Method: 3. Determination of Selective Inhibitory for DAO (Diamine Oxidase)
Test purpose: The following methods can be used to determine the selective inhibitory activity of the compounds of the invention for DAO.
human recombinant DAO (Recombinant Human ABP-1/DAO) purchased from R&D, Cat. No. 8298-AO;
The test compound was dissolved in DMSO and diluted to 6 concentrations in 5-fold serial dilution. In 384 well plates, 24 μL of human recombinant DAO (1 μg/mL) was added to each well. 1 μL Of test compounds with different concentrations were added to each well containing human recombinant DAO and incubated at 37° C. for 30 min. After 30 min incubation, 25 μL of Amplex® Red Hydrogen PeroxidePeroxidase Assay Kit (containing a reaction mixture of 100 μM Amplex® Red and 0.2 U/mL HRP) containing 1 M 1,4-Diaminobutane dihydrochloride was added to the corresponding well, and incubated at 37° C. and dark for 30 min. After 30 min, the relative fluorescence unit (RFU) was read by using PHERAstar FSX enzyme marker of BMG LABTECH at 540 nm excitation and 580 nm emission. The curve was drawn by using the graph pad prism 5 software, and the IC50 value was calculated. The results were shown in table 3, wherein the compound listed in table 3 is the compound in the preparation examples with the same compound number: […]

[2] = Pharmacokinetics in SD rats after intravenous or oral administration; type: in vivo; settings: male, rat, plasma; for Vd: read-out: Vss
Method: 4. Pharmacokinetic Activities of the Compounds of the Invention
Test purpose: The following methods were used to evaluate the pharmacokinetics of the compound of the invention.
SD rats: male, 180-220 g, 7-8 weeks old, purchased from Hunan SJA Laboratory Animal Co., Ltd.
Test compound was prepared by dissolving in a mixture of 5% DMSO+5% KolliphorHS15+90% Saline and adjusted according to the dissolution of each compound, so that the compound can be completely dissolved.
The samples were processed by liquid-liquid extraction, separated by chromatography, quantitatively analyzed by multiple reaction ion monitoring (MRM) on triple quadrupole tandem mass spectrometer, and the results were calculated by using quantitative software.
Taking 30 μL of plasma sample precisely, adding 250 μL of internal standard, and vortex mixing uniformly. Extracting once with 1 mL MTBE, centrifugating at 13000 rpm and 4° C. for 2 min, taking 800 μL of supernatant, and evaporating it in a 96-well termovap sample concentrator, dissolving the residue with 150 μL methanol/water=50/50, vortex mixing, injecting 8 μL.
Determining the content of different compounds in the plasma of rats after the administration by using LC/MS/MS method.
Pharmacokinetic parameters were calculated using a noncompartmental method by WinNonLin 6.1 software.
The pharmacokinetic data of the compounds of the invention were listed in table 4, wherein the compound listed in table 4 is the compound in the preparation examples with the same compound number: […]

[3] = biological target: Human recombinant SSAO/VAP-1 (Homo sapiens (Human), UniProt Q16853); test: Determination of inhibitory activity of human recombinant SSAO/VAP-1 (Amplex Red, benzylamine); type: biochemical; settings: human recombinant SSAO/VAP-1, 30 min preincubation at room temperature; read-out: SSAO/VAP-1(Human recombinant protein) IC50/nM
Sequence of Human recombinant SSAO/VAP-1 (Q16853 whole entry): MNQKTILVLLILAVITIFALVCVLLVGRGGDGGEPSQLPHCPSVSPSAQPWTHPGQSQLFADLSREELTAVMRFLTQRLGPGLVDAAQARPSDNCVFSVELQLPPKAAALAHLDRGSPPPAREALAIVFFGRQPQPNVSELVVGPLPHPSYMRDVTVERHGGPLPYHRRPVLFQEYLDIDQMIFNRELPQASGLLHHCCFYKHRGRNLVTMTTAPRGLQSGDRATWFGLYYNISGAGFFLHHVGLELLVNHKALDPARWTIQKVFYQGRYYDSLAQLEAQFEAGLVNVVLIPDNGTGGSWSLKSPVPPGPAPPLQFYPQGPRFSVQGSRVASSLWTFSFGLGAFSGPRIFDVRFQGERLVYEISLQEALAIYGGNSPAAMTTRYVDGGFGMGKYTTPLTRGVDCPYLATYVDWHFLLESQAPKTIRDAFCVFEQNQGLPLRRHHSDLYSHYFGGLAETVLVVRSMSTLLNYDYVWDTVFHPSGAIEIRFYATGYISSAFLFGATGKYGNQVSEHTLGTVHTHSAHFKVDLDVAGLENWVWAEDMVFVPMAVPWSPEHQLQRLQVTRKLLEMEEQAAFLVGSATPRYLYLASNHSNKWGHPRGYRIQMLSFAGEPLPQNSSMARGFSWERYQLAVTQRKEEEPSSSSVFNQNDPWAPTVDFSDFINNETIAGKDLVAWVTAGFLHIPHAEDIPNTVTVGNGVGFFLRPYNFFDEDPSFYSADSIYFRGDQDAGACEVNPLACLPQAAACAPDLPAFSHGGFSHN
Method: 1. Determination of Inhibitory Activity of Human Recombinant SSAO/VAP-1
Test purpose: The following methods can be used to determine the inhibitory activity of the compounds described in the examples of the invention for human recombinant SSAO/VAP-1.
Human recombinant SSAO/VAP-1 (VAP-1, human) purchased from Sigma, Cat. No. SRP6241;
The test compound was dissolved in DMSO and diluted to 10 concentrations in 4-fold serial dilution. In 384 well plates, 25 μL of human recombinant SSAO/VAP-1 (1.6 μg/ml) was added to each well. 100 nL of test compounds with different concentrations were added to each well containing human recombinant SSAO/VAP-1 and incubated at room temperature for 30 min. After 30 min incubation, 25 μl of Amplex® red monoamine oxidase assay kit (containing a reaction mixture of 200 μm Amplex Red reagent, 1 U/ml HRP and 1 mm benzylamine hydrochloride) was added to the corresponding well, and incubated at room temperature and dark for 60 min. After 60 min, the relative fluorescence unit (RFU) was read by using PerkinElmer's Envision at 530-560 nm excitation and 590 nm emission. The curve was drawn by using the graph pad prism 5 software, and the IC50 value was calculated. The results were shown in table 1, wherein the compound listed in table 1 is the compound in the preparation examples with the same compound number: […]

[4] = biological target: rat adipose tissue homogenate SSAO/VAP-1 (Rattus norvegicus (Rat), UniProt O08590); test: Determination of inhibitory activity of rat adipose tissue homogenate SSAO/VAP-1; type: biochemical, Sprague Dawley rats; settings: rat abdominal adipose tissue homogenate, pargyline pretreated, 37° C.
Sequence of rat adipose tissue homogenate SSAO/VAP-1 (O08590 whole entry): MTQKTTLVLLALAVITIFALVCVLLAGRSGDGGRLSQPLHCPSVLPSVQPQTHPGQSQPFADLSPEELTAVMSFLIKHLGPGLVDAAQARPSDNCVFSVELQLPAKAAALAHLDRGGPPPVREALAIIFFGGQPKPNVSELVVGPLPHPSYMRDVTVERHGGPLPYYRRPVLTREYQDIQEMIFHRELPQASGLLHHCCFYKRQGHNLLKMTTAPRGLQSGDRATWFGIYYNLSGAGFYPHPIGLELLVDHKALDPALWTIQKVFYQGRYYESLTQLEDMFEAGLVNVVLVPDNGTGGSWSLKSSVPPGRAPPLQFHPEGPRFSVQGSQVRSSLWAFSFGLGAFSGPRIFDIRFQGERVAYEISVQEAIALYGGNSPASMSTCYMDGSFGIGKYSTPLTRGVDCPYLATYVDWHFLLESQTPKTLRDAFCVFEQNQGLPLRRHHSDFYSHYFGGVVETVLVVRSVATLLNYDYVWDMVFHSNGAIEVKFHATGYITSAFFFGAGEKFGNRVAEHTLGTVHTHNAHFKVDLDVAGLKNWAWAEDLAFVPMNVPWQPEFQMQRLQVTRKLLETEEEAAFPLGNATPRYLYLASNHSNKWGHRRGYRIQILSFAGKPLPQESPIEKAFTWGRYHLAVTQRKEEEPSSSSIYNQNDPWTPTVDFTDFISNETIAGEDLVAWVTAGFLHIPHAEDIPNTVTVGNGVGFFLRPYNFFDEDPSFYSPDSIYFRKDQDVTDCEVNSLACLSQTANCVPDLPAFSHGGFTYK
Method: 2. Determination of Inhibitory Activity of Rat Adipose Tissue Homogenate SSAO/VAP-1
Test purpose: The following methods can be used to determine the inhibitory activity of the compounds of the invention for rat adipose tissue homogenate SSAO/VAP-1.
The abdominal fat removed from Sprague Dawley rats was a tissue rich in SSAO/VAP-1. 5 mL Of HES buffer per gram of rat abdominal adipose tissue (20 mM Sodium N-piperazine-N-ethanesulfonate, 1 mm EDTA, 250 mM sucrose, 1×PMSF and 100 mM (3-glycerol phosphate disodium salt hydrate, pH 7.4) was added for homogenizing. The fat tissue was homogenized for 3 min by using Bertin precellys 24 multi-functional sample homogenizer of Bertin technologies, and the fat tissue homogenate was centrifuged for 10 min at 4° C. and 20000 g, and the middle transparent supernatant was taken. The supernatant was incubated with 0.5 mm Pargyline hydrochloride dissolved in HES buffer at 37° C. for 30 min. After 30 min incubation, 25 μl of fat tissue supernatant was added to the standard 96 well plate. The test compound was dissolved in DMSO and diluted to 6 concentrations. 25 μL Of the test compounds with different concentrations was added to each well containing the supernatant of fat tissue and incubated at 37° C. for 30 min. After incubation, 50 μL of the reaction mixture containing 80 μM benzylamine hydrochloride (containing 100 μM Amplex® red and 0.2 U/mL HRP, Amplex® Red Hydrogen peroxideperoxidase assay kit) was added to the corresponding wells and incubated at 37° C. for 30 min. After 30 min, the relative fluorescence unit (RFU) was read by using PHERAstar FSX enzyme marker of BMG LABTECH at 540 nm excitation and 580 nm emission. The curve was drawn by using the graph pad prism 5 software, and the IC50 value was calculated. The results were shown in table 2, wherein the compound listed in table 2 is the compound in the preparation examples with the same compound number: Table 2: inhibitory activity of the compound of examples of the invention for SSAO/VAP-1 of fat tissue homogenate

Sequence of human recombinant DAO (P19801 20-751): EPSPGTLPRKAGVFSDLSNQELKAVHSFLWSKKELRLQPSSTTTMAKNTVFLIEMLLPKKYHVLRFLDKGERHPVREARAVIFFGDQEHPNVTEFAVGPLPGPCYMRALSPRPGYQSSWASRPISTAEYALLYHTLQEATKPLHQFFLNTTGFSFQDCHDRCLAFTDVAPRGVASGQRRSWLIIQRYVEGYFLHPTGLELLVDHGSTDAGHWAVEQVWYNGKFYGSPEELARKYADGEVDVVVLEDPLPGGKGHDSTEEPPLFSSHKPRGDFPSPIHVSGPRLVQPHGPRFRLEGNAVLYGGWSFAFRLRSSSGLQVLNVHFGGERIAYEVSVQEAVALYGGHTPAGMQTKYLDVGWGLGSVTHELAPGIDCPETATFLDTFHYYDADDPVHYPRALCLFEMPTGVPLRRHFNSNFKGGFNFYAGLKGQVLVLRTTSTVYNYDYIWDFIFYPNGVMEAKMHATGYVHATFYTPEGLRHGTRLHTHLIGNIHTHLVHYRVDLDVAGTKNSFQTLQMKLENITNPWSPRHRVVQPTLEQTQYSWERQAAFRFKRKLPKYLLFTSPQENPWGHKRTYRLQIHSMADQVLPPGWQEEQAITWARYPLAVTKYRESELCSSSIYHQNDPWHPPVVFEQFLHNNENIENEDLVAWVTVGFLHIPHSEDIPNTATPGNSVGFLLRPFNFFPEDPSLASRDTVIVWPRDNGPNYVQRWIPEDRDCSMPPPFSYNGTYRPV

NC/C(=C\F)COc1ccc2c(c1)CCNC2=O [Compound 3, 6-[(E)-2-(aminomethyl)-3-fluoro-allyloxy]-3,4-dihydro-2H-isoquinolin-1-one hydrochloride]
IC50 [1]: > 0.1 µM

CCOC(=O)CN1CCc2cc(OC/C(=C/F)CN)ccc2C1=O [Compound 12, ethyl 2-[6-[(E)-2-(aminomethyl)-3-fluoro-allyloxy]-1-oxo-3,4-dihydroisoquinolin-2-yl]acetate hydrochloride]
AUC(0-inf) ([2]; iv, I.V., 1 mg/kg): 843 ng·h/mL
AUC(0-t) ([2]; iv, I.V., 1 mg/kg): 837 ng·h/mL
Cmax ([2]; iv, I.V., 1 mg/kg): 946 ng/mL
Tmax ([2]; iv, I.V., 1 mg/kg): 15 min
clearance ([2]; iv, I.V., 1 mg/kg): 330 mL/min/kg
half-life ([2]; iv, I.V., 1 mg/kg): 56.2 min
Vd ([2]; iv, I.V., 1 mg/kg): 1.07 L/kg
AUC(0-inf) ([2]; po, P.O., 5 mg/kg): 2900 ng·h/mL
AUC(0-t) ([2]; po, P.O., 5 mg/kg): 2890 ng·h/mL
Cmax ([2]; po, P.O., 5 mg/kg): 2190 ng/mL
Tmax ([2]; po, P.O., 5 mg/kg): 25 min
half-life ([2]; po, P.O., 5 mg/kg): 57.5 min
IC50 [1]: > 0.1 µM
IC50 [3]: 0.14 nM
IC50 [4]: 10.1 nM

NC/C(=C\F)COc1ccc2c(c1)C(=O)NCC2 [Compound 14, 7-[(E)-2-(aminomethyl)-3-fluoro-allyloxy]-3,4-dihydro-2H-isoquinolin-1-one hydrochloride]
IC50 [1]: > 1 µM

COCCN1CCc2cc(OC/C(=C/F)CN)ccc2C1=O [Compound 18, 6-[(E)-2-(aminomethyl)-3-fluoro-allyloxy]-2-(2-methoxyethyl)-3,4-dihydroisoquinolin-1-one hydrochloride]
IC50 [3]: 0.48 nM
IC50 [4]: 6.13 nM

COCCN1CCc2cc(OC/C(=C\F)CN)ccc2C1=O [Compound 19, 6-[(Z)-2-(aminomethyl)-3-fluoro-allyloxy]-2-(2-methoxyethyl)-3,4-dihydro isoquinolin-1-one hydrochloride]
IC50 [3]: 1 nM
IC50 [4]: 5.7 nM

Cc1ccc(N2CCc3cc(OC/C(=C/F)CN)ccc3C2=O)cc1 [Compound 24, 6-[(E)-2-(aminomethyl)-3-fluoro-allyloxy]-2-(p-methylphenyl)-3,4-dihydroisoquinolin-1-one hydrochloride]
AUC(0-inf) ([2]; iv, I.V., 1 mg/kg): 450 ng·h/mL
AUC(0-t) ([2]; iv, I.V., 1 mg/kg): 364 ng·h/mL
Cmax ([2]; iv, I.V., 1 mg/kg): 144 ng/mL
Tmax ([2]; iv, I.V., 1 mg/kg): 4.98 min
clearance ([2]; iv, I.V., 1 mg/kg): 617 mL/min/kg
half-life ([2]; iv, I.V., 1 mg/kg): 179 min
Vd ([2]; iv, I.V., 1 mg/kg): 9.19 L/kg
AUC(0-inf) ([2]; po, P.O., 5 mg/kg): 5320 ng·h/mL
AUC(0-t) ([2]; po, P.O., 5 mg/kg): 5280 ng·h/mL
Cmax ([2]; po, P.O., 5 mg/kg): 569 ng/mL
Tmax ([2]; po, P.O., 5 mg/kg): 150 min
half-life ([2]; po, P.O., 5 mg/kg): 207 min
IC50 [1]: > 0.1 µM
IC50 [3]: 1.16 nM

NC/C(=C/F)COc1ccc2c(c1)CCNS2(=O)=O [Compound 33, (E)-2-[(1,1-dioxo-3,4-dihydro-2H-benzo[e][1,2]thiazin-6-yl)oxymethyl]-3-fluoro-prop-2-enyl-1-amine hydrochloride]
IC50 [3]: 1.98 nM
IC50 [4]: 4.88 nM

Cc1ccccc1N1CCc2cc(OC/C(=C/F)CN)ccc2C1=O [Compound 46, 6-[(E)-2-(aminomethyl)-3-fluoro-allyloxy]-2-o-methylphenyl-3,4-dihydroisoquinolin-1-one hydrochloride]
IC50 [1]: > 0.1 µM

Reference: patent publication US11396495B2, “Amine compound for inhibiting SSAO/VAP-1 and use thereof” (SUNSHINE LAKE PHARMA CO., LTD., priority 2017, dated 2022)
